Results taken from patent US20060069132A1, “Azolecarboxamide herbicides” (priority 2004, published 2006).

Experiments:
morningglory [1] = test: Test B pre-/postemergence herbicide test; type: in vivo, Ipomoea coccinea
Procedure, shortened: (§1)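 Response was scored visually 13 to 15 days after treatment against untreated greenhouse controls, 0 meaning no effect and 100 complete control. Formulations (solvent mixture plus surfactant) went onto soil after planting, onto foliage of 1- to 4-leaf plants, and onto 2-leaf plants in a flooded paddy set including rice and barnyardgrass.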

barnyardgrass [2] = test: Test B pre-/postemergence herbicide test; type: in vivo, Echinochloa crus-galli
Procedure, shortened: as §1

rice [3] = test: Test B pre-/postemergence herbicide test; type: in vivo, Oryza sativa; conditions: preemergence, 125 g ai/ha; 0 to 100 scale, 0 is no effect, 100 is complete control
Procedure, shortened: (§2)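 Pre: seeds sown, then sprayed. Post: 1–4-leaf plants (2–18 cm) sprayed at the same time. Paddy: flooded, treated at 2-leaf stage. Formulation: non-phytotoxic solvent with surfactant. Greenhouse 13–15 days; visual 0–100 score relative to controls.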

velvetleaf [4] = test: Test A pre-/postemergence herbicide test; type: in vivo, Abutilon theophrasti; conditions: for Velvetleaf plant response rating: Preemergence, visual rating, 0 to 100 scale (0 no effect, 100 complete control)
Procedure, shortened: (§3)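 Plants are held in greenhouse about ten days after treatment, then compared with untreated controls and scored 0 (no effect) to 100 (complete control). Preemergence dosing is a directed soil spray on sown sandy loam; postemergence dosing is spray to runoff at 2–10 cm height.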

velvetleaf [5] = test: Test B pre-/postemergence herbicide test; type: in vivo, Abutilon theophrasti
Procedure, shortened: as §2

barnyardgrass [6] = test: Test B flooded paddy test; type: in vivo, Echinochloa crus-galli; conditions: 1000 g ai/ha, visual rating, scale 0 to 100 (0 no effect, 100 complete control), 13 to 15 days
Procedure, shortened: (§4)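 Visual control ratings, 0–100 versus untreated controls, taken after 13 to 15 days in the greenhouse. Blackgrass received a postemergence spray at the 1- to 4-leaf stage (2–18 cm); ducksalad, umbrella sedge and barnyardgrass were flooded-paddy treated at 2 leaves.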

large crabgrass [7] = test: Test A pre-/postemergence herbicide test; type: in vivo, Digitaria sanguinalis; conditions: for Plant response rating, Crabgrass, Large: Postemergence; for Crabgrass, Large plant response rating: Preemergence
Procedure, shortened: as §3

pigweed = test: Test B pre-/postemergence herbicide test; type: in vivo, Amaranthus retroflexus
Procedure, shortened: as §2

ducksalad = test: Test B flooded paddy test; type: in vivo, Heteranthera limosa; conditions: 1000 g ai/ha, visual rating, scale 0 to 100 (0 no effect, 100 complete control), 13 to 15 days
Procedure, shortened: as §4

wild oat = test: Test B postemergence herbicide test; type: in vivo, Avena fatua; conditions: scale 0 (no effect) to 100 (complete control)
Procedure, shortened: (§5)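 Plants grow to 1- to 4-leaf stage (2–18 cm) for postemergence spraying, or to 2-leaf stage for the paddy test. Formulated compound is applied. Greenhouse holding lasts 13–15 days. Response is scored visually relative to controls, 0 no effect to 100 complete control; a dash means no result.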

blackgrass = test: Test B postemergence herbicide test; type: in vivo, Alopecurus myosuroides; conditions: scale 0 (no effect) to 100 (complete control)
Procedure, shortened: as §4

cocklebur = test: Test B pre-/postemergence herbicide test; type: in vivo, Xanthium strumarium
Procedure, shortened: as §1

redroot pigweed = test: Test A pre-/postemergence herbicide test; type: in vivo, Amaranthus retroflexus; conditions: for Plant response rating, Pigweed: Postemergence; for Pigweed plant response rating: Preemergence
Procedure, shortened: as §3

morningglory [8] = test: Test A pre-/postemergence herbicide test; type: in vivo, Ipomoea spp.; conditions: for Plant response rating, Morningglory: Postemergence; for Morningglory plant response rating: Preemergence
Procedure, shortened: as §3

lambsquarters = test: Test B pre-/postemergence herbicide test; type: in vivo, Chenopodium album
Procedure, shortened: as §2

corn = test: Test B pre-/postemergence herbicide test; type: in vivo, Zea mays
Procedure, shortened: as §2

Surinam grass = test: Test B pre-/postemergence herbicide test; type: in vivo, Urochloa decumbens
Procedure, shortened: as §2

wheat = test: Test B postemergence herbicide test; type: in vivo, Triticum aestivum; parameters: key to Wheat plant response rating: 0 = no effect, 100 = complete control; conditions: scale 0 (no effect) to 100 (complete control)
Procedure, shortened: as §5

giant foxtail [9] = test: Test B pre-/postemergence herbicide test; type: in vivo, Setaria faberi
Procedure, shortened: as §2

large crabgrass [10] = test: Test B pre-/postemergence herbicide test; type: in vivo, Digitaria sanguinalis
Procedure, shortened: as §2

rice [11] = test: Test B flooded paddy test; type: in vivo, Oryza sativa; conditions: 1000 g ai/ha, visual rating, scale 0 to 100 (0 no effect, 100 complete control), 13 to 15 days
Procedure, shortened: as §5

barnyardgrass [12] = test: Test A pre-/postemergence herbicide test; type: in vivo, Echinochloa crus-galli; conditions: for Plant response rating, Barnyardgrass: Postemergence; for Barnyardgrass plant response rating: Preemergence
Procedure, shortened: as §3

giant foxtail [13] = test: Test A pre-/postemergence herbicide test; type: in vivo, Setaria faberi; conditions: for Plant response rating, Foxtail, Giant: Postemergence; for Foxtail, Giant plant response rating: Preemergence
Procedure, shortened: as §3

[14] = tested on: small flower umbrella sedge; test: Test B flooded paddy test; type: in vivo, Cyperus difformis; conditions: 1000 g ai/ha, visual rating, scale 0 to 100 (0 no effect, 100 complete control), 13 to 15 days
Procedure, shortened: as §4

[15] = Postemergence, 500 g ai/ha, visual rating after 13 to 15 days, scale 0 (no effect) to 100 (complete control)
[16] = postemergence, 125 g ai/ha, visual rating, scale 0 (no effect) to 100 (complete control)
[17] = preemergence, 125 g ai/ha, 0 to 100 scale, 0 is no effect, 100 is complete control
[18] = Preemergence, 500 g ai/ha, scale 0 to 100
[19] = 500 g ai/ha, 0 to 100 scale, 0 no effect, 100 complete control
[20] = 2000 g ai/ha, 0 to 100 scale, 0 no effect, 100 complete control
[21] = 500 g ai/ha, visual rating, 0 to 100 scale (0 no effect, 100 complete control)
[22] = Postemergence, 500 g ai/ha, visual rating after 13 to 15 days
[23] = postemergence, 125 g ai/ha, visual rating

CCn1nc(C(C)(C)C)cc1C(=O)Nc1cccc2c1CCN(C1CCCC1)C2=O [Compound 66]
10: Plant response rating, Barnyardgrass (barnyardgrass [2]; [15]) | Plant response rating, Velvetleaf (velvetleaf [5]; [15]) | Velvetleaf plant response rating (velvetleaf [5]; [16]) | Barnyardgrass plant response rating (barnyardgrass [6]) | Plant response rating, Oat, Wild (wild oat; [22]) | Oat, Wild plant response rating (wild oat; [23]) | Plant response rating, Pigweed (redroot pigweed; [19]) | Plant response rating, Pigweed (redroot pigweed; [20]) | Corn plant response rating (corn; [16]) | Plant response rating, Surinam Grass (Surinam grass; [15]) | Surinam Grass plant response rating (Surinam grass; [16]) | Plant response rating, Wheat (wheat; [22]) | Foxtail, Giant plant response rating (giant foxtail [9]; [18]) | Plant response rating, Crabgrass, Large (large crabgrass [10]; [15]) | Crabgrass, Large plant response rating (large crabgrass [10]; [18]) | Sedge, Umbrella plant response rating [14]
70: Plant response rating, Lambsquarters (lambsquarters; [15])
20: Plant response rating, Morningglory (morningglory [1]; [15]) | Morningglory plant response rating (morningglory [1]; [16]) | Pigweed plant response rating (pigweed; [16]) | Plant response rating, Blackgrass (blackgrass; [22]) | Cocklebur plant response rating (cocklebur; [16]) | Plant response rating, Corn (corn; [15]) | Plant response rating, Foxtail, Giant (giant foxtail [9]; [15]) | Barnyardgrass plant response rating (barnyardgrass [12]; [20])
30: Barnyardgrass plant response rating (barnyardgrass [2]; [18]) | Plant response rating, Pigweed (pigweed; [15]) | Plant response rating, Cocklebur (cocklebur; [15])
60: Lambsquarters plant response rating (lambsquarters; [16])
0: Plant response rating, Morningglory (morningglory [1]; [17]) | Barnyardgrass plant response rating (barnyardgrass [2]; [16]) | Plant response rating, Barnyardgrass (barnyardgrass [2]; [17]) | Plant response rating, Rice (rice [3]) | Plant response rating, Velvetleaf (velvetleaf [4]; Postemergence, 2000 g ai/ha, 0 to 100 scale, 0 no effect, 100 complete control) | Velvetleaf plant response rating (velvetleaf [4]; 500 g ai/ha) | Velvetleaf plant response rating (velvetleaf [4]; 2000 g ai/ha) | Plant response rating, Velvetleaf (velvetleaf [5]; [17]) | Plant response rating, Crabgrass, Large (large crabgrass [7]; [19]) | Plant response rating, Crabgrass, Large (large crabgrass [7]; [20]) | Crabgrass, Large plant response rating (large crabgrass [7]; [21]) | Crabgrass, Large plant response rating (large crabgrass [7]; [20]) | Plant response rating, Pigweed (pigweed; [17]) | Ducksalad plant response rating (ducksalad) | Blackgrass plant response rating (blackgrass; [23]) | Cocklebur plant response rating (cocklebur; [18]) | Plant response rating, Cocklebur (cocklebur; [17]) | Pigweed plant response rating (redroot pigweed; [21]) | Pigweed plant response rating (redroot pigweed; [20]) | Plant response rating, Morningglory (morningglory [8]; [19]) | Plant response rating, Morningglory (morningglory [8]; [20]) | Morningglory plant response rating (morningglory [8]; [21]) | Morningglory plant response rating (morningglory [8]; [20]) | Plant response rating, Lambsquarters (lambsquarters; [17]) | Corn plant response rating (corn; [18]) | Plant response rating, Corn (corn; [17]) | Plant response rating, Surinam Grass (Surinam grass; [17]) | Wheat plant response rating (wheat; [23]) | Foxtail, Giant plant response rating (giant foxtail [9]; [16]) | Plant response rating, Foxtail, Giant (giant foxtail [9]; [17]) | Crabgrass, Large plant response rating (large crabgrass [10]; [16]) | Plant response rating, Crabgrass, Large (large crabgrass [10]; [17]) | Rice plant response rating (rice [11]) | Plant response rating, Barnyardgrass (barnyardgrass [12]; [19]) | Plant response rating, Barnyardgrass (barnyardgrass [12]; [20]) | Barnyardgrass plant response rating (barnyardgrass [12]; [21]) | Plant response rating, Foxtail, Giant (giant foxtail [13]; [19]) | Plant response rating, Foxtail, Giant (giant foxtail [13]; [20]) | Foxtail, Giant plant response rating (giant foxtail [13]; [21]) | Foxtail, Giant plant response rating (giant foxtail [13]; [20])
